Source: patent publication US9611277B2 (Janssen Pharmaceutica NV, priority 2013, dated 2017)

How the values were obtained:
[1] = molecular target: human orexin 1 receptor (Homo sapiens, UniProt O43613); test: Human orexin 1 receptor radioligand binding; settings: human orexin 1 receptor; averages of 2-20 runs; read-out: hOX1 Ki
Outline: (§1)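 Competition binding with the tritiated thiazolyl-pyrrolidinyl-methanone radioligand in PBS on homogenized rat or human OX1R-expressing cell suspensions, ≤0.1% DMSO; nonspecific binding defined with 10 μM almorexant. Bound radioactivity read by scintillation after filtration; IC50 from one-site competition fit, converted to Ki using pre-determined radioligand Kd.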

[2] = molecular target: rat orexin 1 receptor (Rattus norvegicus, UniProt P56718); test: Rat orexin 1 receptor radioligand binding; settings: rat orexin 1 receptor; averages of 2-20 runs; read-out: rOX1 Ki
Outline: as §1

[3] = molecular target: human orexin 2 receptor (Homo sapiens (Human), UniProt O43614); test: Human orexin 2 receptor radioligand binding; settings: human orexin 2 receptor; averages of 2-20 runs; read-out: hOX2 Ki
Outline: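 HEK293 cells stably expressing human OX2 receptor, homogenized, incubated with [3H]-EMPA and compounds (DMSO ≤0.1%); nonspecific binding with 10 μM almorexant. Filter-bound radioactivity counted by scintillation; IC50 from one-site competition fit of triplicates, Ki from IC50 and predetermined radioligand Kd, averaged over 2-20 runs.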

human orexin 2 receptor, sequence (O43614 whole entry): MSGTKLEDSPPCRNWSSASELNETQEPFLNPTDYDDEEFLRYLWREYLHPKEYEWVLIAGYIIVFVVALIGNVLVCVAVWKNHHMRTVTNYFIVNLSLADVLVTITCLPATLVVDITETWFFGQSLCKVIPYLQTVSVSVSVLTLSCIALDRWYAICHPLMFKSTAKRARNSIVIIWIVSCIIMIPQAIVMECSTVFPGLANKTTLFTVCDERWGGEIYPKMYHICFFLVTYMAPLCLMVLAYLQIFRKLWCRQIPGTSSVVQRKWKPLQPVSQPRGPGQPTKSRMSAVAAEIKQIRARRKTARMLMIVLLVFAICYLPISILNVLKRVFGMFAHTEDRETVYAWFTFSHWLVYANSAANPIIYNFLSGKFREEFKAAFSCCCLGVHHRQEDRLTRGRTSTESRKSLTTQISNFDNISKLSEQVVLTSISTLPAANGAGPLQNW

| Ki [1] [nM] | Ki [2] [nM] | Ki [3] [nM] | Structure (SMILES) |
| --- | --- | --- | --- |
| 5 | 5 | 458 | O=C(c1cc(F)ccc1-c1ncccn1)N1C[C@H]2C[C@@H](Oc3ccc(Br)cn3)[C@@H]1C2 [Example 111, ((1S,4R,6R)-6-((5-bromopyridin-2-yl)oxy)-2-azabicyclo[2.2.1]heptan-2-yl)(5-fluoro-2-(pyrimidin-2-yl)phenyl)methanone] |
| 10 | 8 | 459 | O=C(c1ccccc1-n1nccn1)N1C[C@H]2C[C@@H](Oc3ccc(Cl)cn3)[C@@H]1C2 [Example 112, (2-(2H-1,2,3-triazol-2-yl)phenyl)((1S,4R,6R)-6-((5-chloropyridin-2-yl)oxy)-2-azabicyclo[2.2.1]heptan-2-yl)methanone] |
| 14 | 17 | 984 | O=C(c1cc(F)ccc1-n1nccn1)N1C[C@H]2C[C@@H](Oc3ccc(Cl)cn3)[C@@H]1C2 [Example 113, ((1S,4R,6R)-6-((5-chloropyridin-2-yl)oxy)-2-azabicyclo[2.2.1]heptan-2-yl)(5-fluoro-2-(2H-1,2,3-triazol-2-yl)phenyl)methanone] |
| 23 | 11 | 668 | Cc1ccc(-n2nccn2)c(C(=O)N2C[C@H]3C[C@@H](Oc4ccc(Cl)cn4)[C@@H]2C3)n1 [Example 114, ((1S,4R,6R)-6-((5-chloropyridin-2-yl)oxy)-2-azabicyclo[2.2.1]heptan-2-yl)(6-methyl-3-(2H-1,2,3-triazol-2-yl)pyridin-2-yl)methanone] |
| 8 | 7 | 852 | O=C(c1cccc(F)c1-c1ncccn1)N1C[C@H]2C[C@@H](Oc3ccc(Cl)cn3)[C@@H]1C2 [Example 115, ((1S,4R,6R)-6-((5-chloropyridin-2-yl)oxy)-2-azabicyclo[2.2.1]heptan-2-yl)(3-fluoro-2-(pyrimidin-2-yl)phenyl)methanone] |
| 12 | 11 | 939 | O=C(c1ccccc1-c1ncc(F)cn1)N1C[C@H]2C[C@@H](Oc3ccc(Cl)cn3)[C@@H]1C2 [Example 116, ((1S,4R,6R)-6-((5-chloropyridin-2-yl)oxy)-2-azabicyclo[2.2.1]heptan-2-yl)(2-(5-fluoropyrimidin-2-yl)phenyl)methanone] |
| 28 | 16 | 1600 | O=C(c1cccc(F)c1-c1ncc(F)cn1)N1C[C@H]2C[C@@H](Oc3ccc(Cl)cn3)[C@@H]1C2 [Example 117, ((1S,4R,6R)-6-((5-chloropyridin-2-yl)oxy)-2-azabicyclo[2.2.1]heptan-2-yl)(3-fluoro-2-(5-fluoropyrimidin-2-yl)phenyl)methanone] |
| 105 | 133 | 1600 | O=C(c1ccccc1-n1nccn1)N1C[C@H]2C[C@@H](Oc3ccc(F)cn3)[C@@H]1C2 [Example 118, (2-(2H-1,2,3-triazol-2-yl)phenyl)((1S,4R,6R)-6-((5-fluoropyridin-2-yl)oxy)-2-azabicyclo[2.2.1]heptan-2-yl)methanone] |
| 111 | 60 | 4100 | O=C(c1cccc(F)c1-c1ncccn1)N1C[C@H]2C[C@@H](Oc3ccc(F)cn3)[C@@H]1C2 [Example 120, (3-fluoro-2-(pyrimidin-2-yl)phenyl)((1S,4R,6R)-6-((5-fluoropyridin-2-yl)oxy)-2-azabicyclo[2.2.1]heptan-2-yl)methanone] |
| 11 | 10 | 50 | O=C(c1ccccc1-n1nccn1)N1C[C@H]2C[C@@H](Oc3ccc(C(F)F)cn3)[C@@H]1C2 [Example 121, (2-(2H-1,2,3-triazol-2-yl)phenyl)((1S,4R,6R)-6-((5-(difluoromethyl)pyridin-2-yl)oxy)-2-azabicyclo[2.2.1]heptan-2-yl)methanone] |
